Laboratory results as given in publication PMC10980815, “Cell surface patching via CXCR4-targeted nanothreads for cancer metastasis inhibition” (Nature Communications, 2024).
Ends that are not written are not given here. HPMA copolymer = HPMA copolymer made by RAFT copolymerization of HPMA with N-(3-aminopropyl)methacrylamide (APMA), bearing maleimide groups for grafting

Experiments:
LOX = LOX ELISA (intra-tumoral, serum, pulmonary); assay type: in vivo, female BALB/c mice; design: Pulmonary LOX: unit not given beside the values; Intratumoral LOX / Systemic LOX: unit not given here; conditions: for Systemic LOX: serum
Method: 4T1 cells (1 × 10^6 cells) were injected into the third mammary fat pad of female BALB/c mice (6–8-week). […] On day 28, blood samples, lungs and tumors were harvested.
To explore the “seed-soil” crosstalk, the serum, intra-tumoral, and pulmonary concentration of LOX was determined using enzyme-linked immunosorbent assay kits (CSB-EL013041MO, CUSABIO, https://www.cusabio.com/) according to the manufacturer’s instructions. The serum, intra-tumoral, and pulmonary concentration of TGF-β was determined using mouse TGF-β ELISA Kit (Cat No.: HB1328-Mu). The formation of PMN was investigated through lung slices subjected to immunofluorescent staining of LOX, E-cadherin, and S100A8. For immunofluorescent staining of E-cadherin, Lung slices were stained with CoraLite® Plus 647 anti-mouse CD324 (E-cadherin, 1:300 dilution). For immunofluorescent staining of LOX and S100A8, Lung slices were separately stained with anti-LOX recombinant rabbit monoclonal antibody (1:500 dilution) or S100-A8 / MRP8 rabbit pAb (1:500 dilution), followed by staining with goat anti-rabbit IgG H&L Alexa Fluor® 647 (1:1000 dilution), respectively. Single-cell suspensions of lungs were analyzed using flow cytometry to assess BMDC (CD11b^+Gr1^+) with PE anti-mouse/human CD11b antibody (1:300 dilution) and FITC anti-mouse Ly-6G/Ly-6C (Gr-1) antibody (1:300 dilution). Chemokine concentrations in lungs were determined using a mouse CXCL12 ELISA kit.

[1] = tested on: orthotopic 4T1 breast tumors; assay: Tumor-infiltrating CD8+ T lymphocytes, Tregs and MDSCs (flow cytometry); assay type: in vivo, female BALB/c mice; conditions: for CD3+CD8+ T cells (%) in tumor / CD11b+Gr1+ MDSCs (%) in tumor / Tregs (%) in CD4+ T cells: Supplementary Fig. 16a; for intratumoral Tregs and MDSCs: three i.v. cycles days 7, 14, 21, day 28, no PDT
Method: 4T1 cells (1 × 10^6 cells) were injected into the third mammary fat pad of female BALB/c mice (6–8-week). When tumor volumes reached nearly […] on day 7 after tumor inoculation, mice were randomly divided into 8 groups (n = 8 per group). For four groups without laser irradiation (−), mice were intravenously injected with the following samples: (1) saline on day 7, 14, 21, and 28, (2) P-PS on day 7, 14, 21, and 28, (3) P-BS-PS on day 7, 14, 21, and 28, or (4) P-BS-CM1 on day 7, 14, 21, and 28, followed by P-PS-CM2 on day 8, 15, 22, and 29 (5 mg/kg BS equivalence, CM1:CM2 1:1 mol%, 2.5 mg/kg PS equivalence), respectively. For four groups with laser irradiation (+), mice were treated with the same regimens and irradiated at 650 nm laser (580 mW/cm^2, 5 min) on day 9, 16, 23 and 30. Tumor volumes and mice survivals were recorded every other day. For the investigation of immune response and lung metastasis, 4T1 tumor-bearing female BALB/c mice (6–8-week, tumor volume~100 mm^3) were randomly divided into 8 groups (n = 5 per group) and given three rounds of above treatments. On day 28, lungs and tumors were harvested. lungs were fixed with Bouin’s solution. The pulmonary metastatic nodules were counted and analyzed by hematoxylin-eosin staining. Single-cell suspensions of tumor tissues were stained with anti-CD45-PerCP/Cy5.5 (1:300 dilution) and anti-calreticulin recombinant rabbit monoclonal antibody (1:500 dilution) at 4 °C for 1 h, and then stained with goat anti-rabbit IgG H&L Alexa Fluor® 647 (1:1000 dilution, 4 °C, 45 min), followed by flow cytometry analysis. ATP and HMGB1 concentrations in the supernatant of cell suspension were measured using a luciferase-based ATP assay kit and a mouse HMGB1 ELISA kit, respectively. Single-cell suspensions of tumors were stained with FITC anti-mouse CD3 antibody (1:300 dilution), PerCP/Cyanine5.5 anti-mouse CD4 antibody (1:300 dilution), anti-CD8α-APC (1:300 dilution), and anti-Foxp3-PE (1:300 dilution) for flow cytometry analysis of T cell subtypes (CD8^+ T cells, CD4^+ effector T cells, and Foxp3^+ regulatory T cells), and stained with PE anti-mouse/human CD11b antibody (1:300 dilution) and FITC anti-mouse Ly-6G/Ly-6C (Gr-1) antibody (1:300 dilution) for flow cytometry analysis of MDSCs (CD11b^+Gr1^+). Cytotoxic T cells in tumor tissues were investigated with immunofluorescent staining of IFN-γ and flow cytometry analysis using anti-IFN-γ-PE (1:300 dilution). For CD8-depletion assay, 4T1 tumor-bearing female BALB/c mice (6–8-week, tumor volume~100 mm^3) were randomly divided into 3 groups (n = 8 per group). Mice were intravenously given four doses of P-BS-CM1 on day 7, 14, 21 and 28, combined with P-PS-CM2 on day 8, 15, 22 and 29 (5 mg/kg BS equivalence, CM1:CM2 1:1 mol%, 2.5 mg/kg PS equivalence) in the presence or absence of InvivoMab anti-mouse CD8α (100 μg/mice). Mice were irradiated at 650 nm laser (580 mW/cm^2, 5 min) on day 9, 16, 23 and 30. Tumor volumes and mice survivals were recorded every other day.

ζ-potential (Zetasizer) = assay type: physicochemical; conditions: Malvern Zetasizer Nano ZS90; mean ± SD
Method: The average molecular weight (Mw) and polydispersity (PDI) of the HPMA copolymer conjugates were determined by gel permeation chromatography (GPC) on an AKTA purifier equipment with a Superose 6 10/300 GL analytical column (GE Healthcare, USA) and a differential refraction detector (KNAUER, 2300, Germany). Hydrodynamic sizes and zeta potentials were determined using a Malvern Zetasizer Nano ZS90 equipment (Malvern Instruments Ltd, Malvern, UK). The contents of BS, CM1, and CM2 were determined using a bicinchoninic acid (BCA) protein assay. The PS concentration was determined by ultraviolet-visible (UV-Vis) spectroscopy at its characteristic absorbance peak (660 nm).

Substance	Intratumoral LOX (LOX; replicate 1)	Pulmonary LOX (LOX; replicate 1)	Intratumoral LOX (LOX; replicate 2)	Pulmonary LOX (LOX; replicate 2)	Intratumoral LOX (LOX; replicate 3)	Pulmonary LOX (LOX; replicate 3)	Intratumoral LOX (LOX; replicate 4)	Pulmonary LOX (LOX; replicate 4)	Intratumoral LOX (LOX; replicate 5)	Pulmonary LOX (LOX; replicate 5)	Systemic LOX (LOX; replicate 1)	Systemic LOX (LOX; replicate 2)	Systemic LOX (LOX; replicate 3)	Systemic LOX (LOX; replicate 4)	Systemic LOX (LOX; replicate 5)	CD3+CD8+ T cells (%) in tumor ([1]; replicate 1 of 5) [%]	CD11b+Gr1+ MDSCs (%) in tumor ([1]; replicate 1 of 5) [%]	Tregs (%) in CD4+ T cells ([1]; replicate 1 of 5) [%]	CD3+CD8+ T cells (%) in tumor ([1]; replicate 2 of 5) [%]	CD11b+Gr1+ MDSCs (%) in tumor ([1]; replicate 2 of 5) [%]	other results
LGASWHRPDKCCLGYQKRPLPA [Free BS]	4.19	254.76	4.18	210.31	5.17	211.1	5.44	280.17	4.81	276.43	127.4	132.76	133.61	151.3	147.4	0.123	19.37	22.46	0.1188	18.11	Tregs (%) in CD4+ T cells ([1]; replicate 2 of 5): 19.38%; CD3+CD8+ T cells (%) in tumor ([1]; replicate 3 of 5): 0.1444%; CD11b+Gr1+ MDSCs (%) in tumor ([1]; replicate 3 of 5): 26.3%; Tregs (%) in CD4+ T cells ([1]; replicate 3 of 5): 19.75%; CD3+CD8+ T cells (%) in tumor ([1]; replicate 4 of 5): 0.1085%; CD11b+Gr1+ MDSCs (%) in tumor ([1]; replicate 4 of 5): 21.21%; Tregs (%) in CD4+ T cells ([1]; replicate 4 of 5): 21.91%; CD3+CD8+ T cells (%) in tumor ([1]; replicate 5 of 5): 0.1016%; CD11b+Gr1+ MDSCs (%) in tumor ([1]; replicate 5 of 5): 17.61%; Tregs (%) in CD4+ T cells ([1]; replicate 5 of 5): 22.71%; intratumoral Tregs and MDSCs [1]: not affected
P-BS: HPMA copolymer-BS conjugate, ~6 BS grafts per polymer (LGASWHRPDKCCLGYQKRPLPA; not fully specified (residues 11, 12); also: about 6 peptides grafted on HPMA copolymer via cysteine-maleimide thioether links)	3.43	195.4	2.08	174.61	1.87	154.51	2.69	156.3	2.96	144.2	76.42	77.13	91.2	85.1	105.1	0.1153	12.4	15.81	0.2531	14.84	ζ-potential (ζ-potential (Zetasizer)): -15.53±1.45 mV; Tregs (%) in CD4+ T cells ([1]; replicate 2 of 5): 15.31%; CD3+CD8+ T cells (%) in tumor ([1]; replicate 3 of 5): 0.2407%; CD11b+Gr1+ MDSCs (%) in tumor ([1]; replicate 3 of 5): 14.8%; Tregs (%) in CD4+ T cells ([1]; replicate 3 of 5): 13.12%; CD3+CD8+ T cells (%) in tumor ([1]; replicate 4 of 5): 0.1577%; CD11b+Gr1+ MDSCs (%) in tumor ([1]; replicate 4 of 5): 14.66%; Tregs (%) in CD4+ T cells ([1]; replicate 4 of 5): 11.55%; CD3+CD8+ T cells (%) in tumor ([1]; replicate 5 of 5): 0.2259%; CD11b+Gr1+ MDSCs (%) in tumor ([1]; replicate 5 of 5): 15.36%; Tregs (%) in CD4+ T cells ([1]; replicate 5 of 5): 16.67%; intratumoral Tregs and MDSCs [1]: moderately decreased
P-CM2-Cy3: Cy3-labeled P-CM2 (C(HPMA copolymer)YGGEVSALEKEVSALEKKNSALEKEVSALEKEVSALEK; also: Cy3 label on conjugate, position not given here)	–	–	–	–	–	–	–	–	–	–	–	–	–	–	–	–	–	–	–	–	ζ-potential (ζ-potential (Zetasizer)): -9.21±0.67 mV
